According to publication PMC4300089, “Structure-Guided Design of Selective Epac1 and Epac2 Agonists” (PLoS Biology, 2015):
Read-outs that look alike come from different tables or passages of the source.

Columns and labels:
[1] = biological target: T1, Epac1 (Homo sapiens, UniProt O95398); assay: Epac activation assay, Epac1; type: biochemical; conditions: Epac1; for Rel. kmax: maximal activity relative to cAMP
T1 construct: made in house
T1 sequence (O95398 150-881 isoform O95398-3): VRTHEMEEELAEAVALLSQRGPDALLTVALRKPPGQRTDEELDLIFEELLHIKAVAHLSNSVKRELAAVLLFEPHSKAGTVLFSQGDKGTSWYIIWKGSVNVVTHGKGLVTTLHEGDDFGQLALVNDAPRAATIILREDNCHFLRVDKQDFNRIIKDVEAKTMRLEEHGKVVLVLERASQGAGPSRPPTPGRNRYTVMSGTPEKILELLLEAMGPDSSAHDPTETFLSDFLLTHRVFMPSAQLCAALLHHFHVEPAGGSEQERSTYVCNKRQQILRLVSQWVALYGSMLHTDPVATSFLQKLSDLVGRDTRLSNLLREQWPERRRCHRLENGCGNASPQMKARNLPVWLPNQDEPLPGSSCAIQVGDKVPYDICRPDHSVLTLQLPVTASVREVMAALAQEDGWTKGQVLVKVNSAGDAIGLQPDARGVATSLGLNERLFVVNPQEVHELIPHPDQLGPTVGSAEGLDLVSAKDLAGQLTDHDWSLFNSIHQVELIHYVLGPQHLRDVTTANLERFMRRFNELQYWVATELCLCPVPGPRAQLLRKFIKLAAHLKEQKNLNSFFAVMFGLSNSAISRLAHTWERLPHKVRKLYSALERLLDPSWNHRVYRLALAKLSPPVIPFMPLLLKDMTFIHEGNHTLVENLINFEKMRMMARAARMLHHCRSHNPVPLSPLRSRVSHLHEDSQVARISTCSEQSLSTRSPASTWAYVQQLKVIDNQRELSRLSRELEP

[2] = biological target: T2, Epac2^Δ280 (Mus musculus, UniProt Q9EQZ6); assay: Epac activation assay (Rap1B•mGDP fluorescence nucleotide exchange), Epac2^Δ280; type: biochemical; conditions: Epac2^Δ280; for Rel. kmax: maximal activity relative to cAMP
T2 construct: made in house
T2 sequence (Q9EQZ6 281-993 isoform Q9EQZ6-3): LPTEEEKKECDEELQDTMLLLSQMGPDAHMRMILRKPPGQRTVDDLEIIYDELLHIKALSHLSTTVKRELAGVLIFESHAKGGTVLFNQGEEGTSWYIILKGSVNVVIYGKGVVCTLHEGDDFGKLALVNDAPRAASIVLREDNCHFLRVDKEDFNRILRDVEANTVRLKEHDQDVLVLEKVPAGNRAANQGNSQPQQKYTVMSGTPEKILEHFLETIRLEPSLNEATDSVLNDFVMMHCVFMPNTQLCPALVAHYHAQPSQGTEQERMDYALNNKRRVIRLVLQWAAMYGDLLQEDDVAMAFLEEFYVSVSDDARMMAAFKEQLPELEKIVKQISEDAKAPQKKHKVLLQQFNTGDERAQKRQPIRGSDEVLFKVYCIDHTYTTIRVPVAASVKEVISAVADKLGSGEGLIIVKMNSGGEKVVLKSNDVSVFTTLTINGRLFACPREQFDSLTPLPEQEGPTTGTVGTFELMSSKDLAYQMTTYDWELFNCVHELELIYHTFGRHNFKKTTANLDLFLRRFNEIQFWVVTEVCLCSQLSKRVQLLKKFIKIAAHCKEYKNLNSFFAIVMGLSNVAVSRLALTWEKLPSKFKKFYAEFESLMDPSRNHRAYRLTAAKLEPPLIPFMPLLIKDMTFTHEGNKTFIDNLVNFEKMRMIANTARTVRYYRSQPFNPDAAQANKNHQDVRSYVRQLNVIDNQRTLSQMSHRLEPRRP
Procedure: (§1) Murine Epac2 was used as all previous structural studies were performed with it.
(§2) The activity of Epac was determined by a fluorescence assay. […] The fluorescence intensity of Rap1B•mGDP is approximately twice that of free mGDP, and thus, nucleotide exchange can be observed as a decay in fluorescence upon the addition of excess unlabeled GDP.

[3] = biological target: T3, Epac2^fl (Mus musculus, UniProt Q9EQZ6); assay: Epac activation assay, full length Epac2; type: biochemical; parameters: made in house; conditions: Epac2^fl; for Rel. kmax: maximal activity relative to cAMP
T3 sequence (Q9EQZ6 1-993 isoform Q9EQZ6-3): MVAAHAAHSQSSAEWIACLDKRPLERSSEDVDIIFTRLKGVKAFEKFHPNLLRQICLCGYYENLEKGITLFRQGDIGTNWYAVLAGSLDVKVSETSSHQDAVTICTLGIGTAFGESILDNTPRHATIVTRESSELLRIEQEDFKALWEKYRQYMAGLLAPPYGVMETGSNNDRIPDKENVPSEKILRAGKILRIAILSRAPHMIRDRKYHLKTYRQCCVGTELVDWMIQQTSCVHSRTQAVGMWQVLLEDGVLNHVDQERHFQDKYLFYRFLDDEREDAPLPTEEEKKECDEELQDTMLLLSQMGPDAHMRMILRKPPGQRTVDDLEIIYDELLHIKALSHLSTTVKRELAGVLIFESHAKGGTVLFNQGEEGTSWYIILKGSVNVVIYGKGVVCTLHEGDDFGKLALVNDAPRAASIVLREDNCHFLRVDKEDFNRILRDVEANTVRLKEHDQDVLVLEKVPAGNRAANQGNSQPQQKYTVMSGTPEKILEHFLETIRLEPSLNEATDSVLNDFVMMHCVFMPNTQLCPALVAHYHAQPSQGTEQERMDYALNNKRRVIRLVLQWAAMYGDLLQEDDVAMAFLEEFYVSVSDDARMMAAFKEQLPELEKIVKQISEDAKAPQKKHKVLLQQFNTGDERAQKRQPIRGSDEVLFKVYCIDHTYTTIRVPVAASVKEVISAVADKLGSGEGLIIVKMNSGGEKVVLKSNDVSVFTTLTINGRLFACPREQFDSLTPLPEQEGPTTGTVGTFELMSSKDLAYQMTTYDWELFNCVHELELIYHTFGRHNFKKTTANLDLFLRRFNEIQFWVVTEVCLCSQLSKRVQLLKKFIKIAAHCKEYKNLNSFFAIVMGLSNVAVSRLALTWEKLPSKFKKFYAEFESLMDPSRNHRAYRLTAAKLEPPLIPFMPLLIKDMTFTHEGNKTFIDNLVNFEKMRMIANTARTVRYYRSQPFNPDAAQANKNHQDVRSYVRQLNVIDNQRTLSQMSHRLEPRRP
Procedure: as §1, §2

[4] = biological target: T1, Epac1; parameters: method as in PMID 12888551; conditions: footnote c, see also ref 13; cited from earlier work

SMILES | AC50 [1] [µM] | Rel. kmax [1] | AC50 [2] [µM] | Rel. kmax [2] | AC50 [3] [µM] | Rel. kmax [3] | AC50 [4] [µM] | Rel. kmax [4]
CSc1nc2c(N)ncnc2n1[C@@H]1O[C@@H]2COP(=O)(O)O[C@H]2[C@H]1SC [D-002, 8,2′-DMeT-cAMP] | 17 | 1.4 | 2.6 | 2.0 | 110 | 2.4 |  | 
Nc1ncnc2c1nc(Cl)n2[C@@H]1O[C@@H]2COP(=O)(O)O[C@H]2[C@H]1O [L-001, 8-Cl-cAMP] |  |  | 0.3 | 0.8 |  |  | 6.9 | 0.5^c
Nc1ncnc2c1nc(Br)n2[C@@H]1O[C@@H]2COP(=O)(O)O[C@H]2[C@H]1O [L-002, 8-Br-cAMP] |  |  | 0.4 | 0.9 |  |  | 6.2 | 0.5^c
CNc1nc2c(N)ncnc2n1[C@@H]1O[C@@H]2COP(=O)(O)O[C@H]2[C@H]1O [L-005, 8-MeA-cAMP] |  |  | 0.6 | 3.3 |  |  | 19 | 0.5^c
Nc1ncnc2c1nc(N1CCCCC1)n2[C@@H]1O[C@@H]2COP(=O)(O)O[C@H]2[C@H]1O [L-018, 8-PIP-cAMP] |  |  | 13 | 3.8 |  |  | 130 | 0.9^c
Nc1ncnc2c1[nH]c(=O)n2C1OC2COP(=O)(O)OC2C1O [L-021, 8-OH-cAMP] |  |  | 0.6 | 0.4 |  |  | 26 | 0.5^c
Nc1ncnc2c1nc(Br)n2[C@@H]1O[C@@H]2COP(O)(=S)O[C@@H]2C1O (some centres unmarked) [S-010, Sp-8-Br-cAMPS] | 16 | 1.0 | 0.4 | 3.5 | 8 | 3.6 |  | 
CO[C@H]1C2OP(O)(=S)OC[C@H]2O[C@H]1n1c(Br)nc2c(N)ncnc21 (some centres unmarked) [S-014, Sp-8-Br-2′-O-Me-cAMPS] |  |  | 13 | 2.0 | > 80 |  |  | 
CNc1nc2c(N)ncnc2n1[C@@H]1O[C@@H]2CO[P@](O)(=S)O[C@H]2[C@H]1O [S-030, Sp-8-MeA-cAMPS] | 30 | 1.4 | 0.7 | 8.4 | 10 | 7.7 |  | 
Nc1ncnc2c1nc(SCc1ccccc1)n2[C@@H]1O[C@@H]2CO[P@](O)(=S)O[C@H]2[C@H]1F [S-222, Sp-8-BnT-2′-F-cAMPS] | 60 | 0.09 | 4.3 | 4.2 | 15 | 1.8 |  | 
Nc1ncnc2c1ncn2[C@H]1C[C@@H]2OP(=O)(O)OC[C@H]2O1 [Z-001, 2′-dcAMP] |  |  | 70 | 1.4 |  |  | > 1000 | 
CO[C@H]1C2OP(=O)(O)OC[C@H]2O[C@H]1n1cnc2c(N)ncnc21 (some centres unmarked) [Z-004, 2′-O-Me-cAMP] |  |  | 32 | 1.0 |  |  | > 100 | 
